Assay results from patent publication US12357598B2, “Treatment of neurodevelopmental disorders” (THE REGENTS OF THE UNIVERSITY OF CALIFORNIA, priority 2018, dated 2025).

Tested on: ddY mice
Experiment: Oxylipin analysis of plasma and brain regions of juvenile offspring after maternal glyphosate exposure
Type: in vivo, mouse
Details: juvenile offspring (P28), maternal 0.095% glyphosate
Excerpt: Collection of blood and brain samples and oxylipin analysis. Water or 0.095% glyphosate was given to pregnant mice from E5 to P21, as described above. The male offspring were separated from their mothers at weaning (P21). At juvenile (P28) stage, mice were deeply anesthetized with isoflurane and plasma was collected. Subsequently, brains were removed from the skulls. For Western blot analysis, brain regions such as prefrontal cortex (PFC), hippocampus, and striatum, were dissected from brain on ice. The samples were stored at −80° C. before assay. For oxylipin analysis, plasma was collected after isoflurane anesthesia at juvenile (P28) stage. Subsequently, PFC, hippocampus, and striatum were dissected from brain on ice, and the samples were stored at −80° C. before assay. Measurement of eicosanoids in the plasma and brain regions was performed at UC Davis using the previous method (4).

SMILES: O=C(O)CNCP(=O)(O)O [glyphosate]
- 4,5-DiHDPE level (plasma): 1.527 ± 0.112 nmol/mL
- 5(6)-EpETrE level (plasma): 24.279 ± 3.524 nmol/mL
- 5,6-DiHETrE level (plasma): 0.417 ± 0.047 nmol/mL
- 5-HEPE level (plasma): 8.117 ± 1.251 nmol/mL
- 5-HETE level (plasma): 2.137 ± 0.335 nmol/mL
- 5-oxo-ETE level (plasma): 20.987 ± 2.839 nmol/mL
- 6-keto-PGF1a level (plasma): 0.252 ± 0.043 nmol/mL
- 7(8)-EpDPE level (plasma): 195.343 ± 16.718 nmol/mL
- 8(9)-EpETE level (plasma): 0.863 ± 0.138 nmol/mL
- 8(9)-EpETrE alt level (plasma): 3.325 ± 0.409 nmol/mL
- 8(9)-EpETrE level (plasma): 13.892 ± 2.938 nmol/mL
- 8-HEPE level (plasma): 7.652 ± 0.970 nmol/mL
- 8-HETE level (plasma): 7.349 ± 0.718 nmol/mL
- 9(10)-EpOME level (plasma): 28.326 ± 4.243 nmol/mL
- 9,10,13-TriHOME level (plasma): 5.220 ± 0.403 nmol/mL
- 9,12,13-TriHOME level (plasma): 12.758 ± 1.096 nmol/mL
- 9-HETE level (plasma): 0.056 ± 0.012 nmol/mL
- 9-HODE level (plasma): 17.293 ± 2.482 nmol/mL
- 10(11)-EpDPE level (plasma): 13.285 ± 1.234 nmol/mL
- 11(12)-EpETE level (plasma): 2.579 ± 0.284 nmol/mL
- 11(12)-EpETrE level (plasma): 6.360 ± 1.002 nmol/mL
- 11,12-,15-TriHETrE level (plasma): 0.300 ± 0.072 nmol/mL
- 11,12-DiHETrE level (plasma): 0.394 ± 0.045 nmol/mL
- 11-HETE level (plasma): 1.949 ± 0.131 nmol/mL
- 12(13)-EpOME level (plasma): 38.512 ± 4.378 nmol/mL
- 12-HEPE level (plasma): 92.380 ± 15.026 nmol/mL
- 12-HETE level (plasma): 90.069 ± 11.494 nmol/mL
- 12-oxo-ETE level (plasma): 500.173 ± 99.031 nmol/mL
- 13(14)-EpDPE level (plasma): 8.177 ± 0.873 nmol/mL
- 13,14-DiHDPE level (plasma): 0.530 ± 0.056 nmol/mL
- 13-HODE level (plasma): 66.733 ± 9.200 nmol/mL
- 14(15)-EpETE level (plasma): 2.316 ± 0.258 nmol/mL
- 14(15)-EpETrE level (plasma): 4.038 ± 0.637 nmol/mL
- 14,15-DiHETrE level (plasma): 0.575 ± 0.051 nmol/mL
- 15(16)-EpODE level (plasma): 14.493 ± 1.929 nmol/mL
- 15(S)-HETrE level (plasma): 0.743 ± 0.167 nmol/mL
- 15-HETE level (plasma): 1.985 ± 0.228 nmol/mL
- 15-oxo-ETE level (plasma): 0.746 ± 0.105 nmol/mL
- 16(17)-EpDPE level (plasma): 7.978 ± 0.799 nmol/mL
- 16,17-DiHDPE level (plasma): 1.955 ± 0.201 nmol/mL
- 17(18)-EpETE level (plasma): 4.845 ± 0.480 nmol/mL
- 17-HDoHE level (plasma): 1386.287 ± 316.090 nmol/mL
- 19(20)-EpDPE level (plasma): 19.092 ± 1.307 nmol/mL
- 19,20-DiHDPE level (plasma): 6.507 ± 0.444 nmol/mL
- EKODE level (plasma): 12.405 ± 2.140 nmol/mL
- LTB3 level (plasma): 2.540 ± 0.525 nmol/mL
- PGD2 level (plasma): 0.138 ± 0.010 nmol/mL
- PGE2 level (plasma): 0.704 ± 0.010 nmol/mL
- PGF2a level (plasma): 0.462 ± 0.048 nmol/mL
- TXB2 level (plasma): 0.548 ± 0.069 nmol/mL
- 4,5-DiHDPE level (striatum): 1.331 ± 0.320 pmol/g
- 5(6)-EpETrE level (striatum): 2286.424 ± 589.971 pmol/g
- 5,6-DiHETrE level (striatum): 0.655 ± 0.058 pmol/g
- 5-HEPE level (striatum): 1.966 ± 0.253 pmol/g
- 5-HETE level (striatum): 21.009 ± 1.874 pmol/g
- 5-oxo-ETE level (striatum): 177.806 ± 23.342 pmol/g
- 6-keto-PGF1a level (striatum): 70.151 ± 4.942 pmol/g
- 7(8)-EpDPE level (striatum): 3684.482 ± 1464.079 pmol/g
- 8(9)-EpETE level (striatum): 2.863 ± 1.693 pmol/g
- 8(9)-EpETrE alt level (striatum): 256.271 ± 63.811 pmol/g
- 8(9)-EpETrE level (striatum): 7513.6 ± 2879.9 pmol/g
- 8-HEPE level (striatum): 1.198 ± 0.106 pmol/g
- 8-HETE level (striatum): 7.063 ± 1.134 pmol/g
- 9(10)-EpOME level (striatum): 64.909 ± 24.089 pmol/g
- 9,10,13-TriHOME level (striatum): 35.219 ± 5.532 pmol/g
- 9,12,13-TriHOME level (striatum): 59.110 ± 9.487 pmol/g
- 9-HETE level (striatum): 2.001 ± 0.403 pmol/g
- 9-HODE level (striatum): 42.211 ± 2.648 pmol/g
- 10(11)-EpDPE level (striatum): 283.118 ± 111.688 pmol/g
- 11(12)-EpETE level (striatum): 2.950 ± 0.707 pmol/g
- 11(12)-EpETrE level (striatum): 1056.655 ± 383.807 pmol/g
- 11,12-,15-TriHETrE level (striatum): 28.513 ± 2.432 pmol/g
- 11,12-DiHETrE level (striatum): 1.461 ± 0.114 pmol/g
- 11-HETE level (striatum): 263.508 ± 14.043 pmol/g
- 12(13)-EpOME level (striatum): 75.548 ± 26.478 pmol/g
- 12-HEPE level (striatum): 16.777 ± 3.707 pmol/g
- 12-HETE level (striatum): 402.213 ± 68.023 pmol/g
- 12-oxo-ETE level (striatum): 2383.322 ± 205.470 pmol/g
- 13(14)-EpDPE level (striatum): 196.586 ± 72.402 pmol/g
- 13,14-DiHDPE level (striatum): 0.849 ± 0.088 pmol/g
- 13-HODE level (striatum): 61.551 ± 3.988 pmol/g
- 14(15)-EpETE level (striatum): 2.368 ± 0.640 pmol/g
- 14(15)-EpETrE level (striatum): 991.031 ± 327.438 pmol/g
- 14,15-DiHETrE level (striatum): 2.399 ± 0.255 pmol/g
- 15(16)-EpODE level (striatum): 0.837 ± 0.335 pmol/g
- 15(S)-HETrE level (striatum): 13.863 ± 0.898 pmol/g
- 15-HETE level (striatum): 312.592 ± 16.237 pmol/g
- 15-oxo-ETE level (striatum): 15.203 ± 3.961 pmol/g
- 16(17)-EpDPE level (striatum): 186.178 ± 73.985 pmol/g
- 16,17-DiHDPE level (striatum): 1.427 ± 0.114 pmol/g
- 17(18)-EpETE level (striatum): 7.282 ± 2.840 pmol/g
- 17-HDoHE level (striatum): 7832.089 ± 1004.299 pmol/g
- 19(20)-EpDPE level (striatum): 373.365 ± 128.458 pmol/g
- 19,20-DiHDPE level (striatum): 8.734 ± 0.672 pmol/g
- EKODE level (striatum): 14.223 ± 1.256 pmol/g
- LTB3 level (striatum): 74.130 ± 28.033 pmol/g
- PGD2 level (striatum): 404.389 ± 30.557 pmol/g
- PGE2 level (striatum): 61.254 ± 3.057 pmol/g
- PGF2a level (striatum): 367.138 ± 24.248 pmol/g
- TXB2 level (striatum): 219.314 ± 15.121 pmol/g
